Experimental data reported in PubChem BioAssay (NCI).
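Values below derive from 48-hour exposures of cells grown in 96-well plates, with endpoints linearly interpolated between the two concentrations bracketing the appropriate inhibition level. The concentration for 50% growth inhibition is given as GI50. TGI is the concentration that stops growth completely.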

Assays:
Experiment in all cases: inhibition of tumour cell growth, NCI panel, 48 h
[1] = system: 786-0 renal
[2] = system: A549 NSCLC
[3] = system: ACHN renal
[4] = system: CAKI-1 renal
[5] = system: CCRF-CEM leukemia
[6] = system: COLO 205 colon
[7] = system: DU-145 prostate
[8] = system: EKVX NSCLC
[9] = system: HCT-116 colon
[10] = system: HCT-15 colon
[11] = system: HL-60(TB) leukemia
[12] = system: HOP-62 NSCLC
[13] = system: HOP-92 NSCLC
[14] = system: HS 578T breast
[15] = system: HT29 colon
[16] = system: IGROV1 ovarian
[17] = system: K-562 leukemia
[18] = system: KM12 colon
[19] = system: LOX IMVI melanoma
[20] = system: M14 melanoma
[21] = system: MALME-3M melanoma
[22] = system: MCF7 breast
[23] = system: MDA-MB-231 breast
[24] = system: MDA-MB-435
[25] = system: MOLT-4 leukemia
[26] = system: NCI-H226 lung
[27] = system: NCI-H23 lung
[28] = system: NCI-H460 lung
[29] = system: NCI-H522 lung
[30] = system: NCI/ADR-RES ovarian
[31] = system: OVCAR-3 ovarian
[32] = system: OVCAR-4 ovarian
[33] = system: OVCAR-5 ovarian
[34] = system: OVCAR-8 ovarian
[35] = system: PC-3 prostate
[36] = system: RPMI-8226 leukemia
[37] = system: RXF 393 renal
[38] = system: SF-268 CNS
[39] = system: SF-295 CNS
[40] = system: SF-539 CNS
[41] = system: SK-MEL-2 melanoma
[42] = system: SK-MEL-28 melanoma
[43] = system: SK-MEL-5 melanoma
[44] = system: SK-OV-3 ovarian
[45] = system: SN12C renal
[46] = system: SNB-19 CNS
[47] = system: SNB-75 CNS
[48] = system: SR leukemia
[49] = system: SW-620 colon
[50] = system: T-47D breast
[51] = system: TK-10 renal
[52] = system: U251 CNS
[53] = system: UACC-257 melanoma
[54] = system: UACC-62 melanoma
[55] = system: UO-31 renal
[56] = system: HCC-2998 colon
[57] = system: A498 renal
[58] = system: BT-549 breast

Work on C/C(=C\COP(=O)(O)OP(=O)(O)O)CC/C=C(\C)CNc1ccc([N+](=O)[O-])cc1 yielded a TGI [1] of over 100 µM, a TGI [2] of over 100 µM and a TGI [3] of over 100 µM. It also gave a TGI [4] of over 100 µM, a TGI [5] of over 100 µM and a TGI [6] of over 100 µM. It also gave a TGI [7] of over 100 µM, a TGI [8] of over 100 µM and a TGI [9] of over 100 µM. It also gave a TGI [10] of over 100 µM, a TGI [11] of over 100 µM and a TGI [12] of over 100 µM. For the same compound, the TGI [13] was over 100 µM, the TGI [14] was over 100 µM and the TGI [15] was over 100 µM. For the same compound, the TGI [16] was over 100 µM, the TGI [17] was over 100 µM and the TGI [18] was over 100 µM. The TGI [19] was over 100 µM, the TGI [20] was over 100 µM and the TGI [21] was over 100 µM. It also gave a TGI [22] of over 100 µM, a TGI [23] of over 100 µM and a TGI [24] of over 100 µM. It also gave a TGI [25] of over 100 µM, a TGI [26] of over 100 µM and a TGI [27] of over 100 µM. For the same compound, the TGI [28] was over 100 µM, the TGI [29] was over 100 µM and the TGI [30] was over 100 µM. The TGI [31] was over 100 µM, the TGI [32] was over 100 µM and the TGI [33] was over 100 µM. It also gave a TGI [34] of over 100 µM, a TGI [35] of over 100 µM and a TGI [36] of over 100 µM. For the same compound, the TGI [37] was over 100 µM, the TGI [38] was over 100 µM and the TGI [39] was over 100 µM. The TGI [40] was over 100 µM, the TGI [41] was over 100 µM and the TGI [42] was over 100 µM. The TGI [43] was over 100 µM, the TGI [44] was over 100 µM and the TGI [45] was over 100 µM. It also gave a TGI [46] of over 100 µM, a TGI [47] of over 100 µM and a TGI [48] of over 100 µM. It also gave a TGI [49] of over 100 µM, a TGI [50] of over 100 µM and a TGI [51] of over 100 µM. The TGI [52] was over 100 µM, the TGI [53] was over 100 µM and the TGI [54] was over 100 µM. It also gave a TGI [55] of over 100 µM.

Compound c1ccc2cc(Cn3c(-c4ccc5ccccc5c4)[n+](Cc4ccc5ccccc5c4)c4ccccc43)ccc2c1 has a GI50 [3] of 0.752 µM, a TGI [3] of 2.04 µM and a GI50 [7] of 0.399 µM. It also gave a TGI [7] of 1.52 µM, a GI50 [56] of 0.365 µM and a TGI [56] of 1.47 µM. The GI50 [9] was 0.193 µM, the TGI [9] was 0.598 µM and the GI50 [11] was 0.293 µM. For the same compound, the TGI [11] was 0.944 µM, the GI50 [13] was 0.0852 µM and the TGI [13] was 0.416 µM. The GI50 [18] was 0.269 µM, the TGI [18] was 0.869 µM and the GI50 [21] was 0.215 µM. For the same compound, the TGI [21] was 0.649 µM, the GI50 [23] was 0.218 µM and the TGI [23] was 0.961 µM. For the same compound, the GI50 [24] was 0.296 µM, the TGI [24] was 1.03 µM and the GI50 [26] was 0.481 µM. For the same compound, the TGI [26] was 2.46 µM, the GI50 [33] was 0.41 µM and the TGI [33] was 1.59 µM. It also gave a GI50 [35] of 0.228 µM, a TGI [35] of 0.763 µM and a GI50 [40] of 0.381 µM. For the same compound, the TGI [40] was 1.52 µM, the GI50 [42] was 0.362 µM and the TGI [42] was 1.28 µM. The GI50 [47] was 0.182 µM, the TGI [47] was 0.827 µM and the GI50 [49] was 0.31 µM. The TGI [49] was 1.22 µM, the GI50 [54] was 0.277 µM and the TGI [54] was 0.89 µM. The GI50 [55] was 0.781 µM and the TGI [55] was 2.3 µM.

Nc1ccc(Oc2ccc(C3(c4ccc(Oc5ccc(N)c(O)c5)cc4)C4CC5C6CC7CC5C3C(C7)C6C4)cc2)cc1O was tested, and the TGI [1] was 3.4 µM, the TGI [57] was 4.73 µM and the TGI [3] was 3.18 µM. For the same compound, the TGI [58] was over 31.2 µM, the TGI [4] was 6.72 µM and the TGI [5] was over 100 µM. The TGI [7] was 3.54 µM, the TGI [8] was over 24.1 µM and the TGI [56] was 4.96 µM. For the same compound, the TGI [10] was 10.3 µM, the TGI [11] was over 100 µM and the TGI [13] was 5.02 µM. The TGI [14] was over 100 µM, the TGI [16] was 4.68 µM and the TGI [17] was 5.35 µM. For the same compound, the TGI [18] was 3.85 µM, the TGI [21] was over 24.2 µM and the TGI [25] was 4.99 µM. For the same compound, the TGI [28] was over 100 µM, the TGI [30] was over 100 µM and the TGI [32] was 5.73 µM. It also gave a TGI [33] of 5.76 µM, a TGI [35] of 3.48 µM and a TGI [37] of 4.5 µM. For the same compound, the TGI [40] was over 21.6 µM, the TGI [41] was 5.64 µM and the TGI [42] was over 26.5 µM. It also gave a TGI [43] of over 26.4 µM, a TGI [45] of 3.19 µM and a TGI [46] of 24.2 µM. It also gave a TGI [48] of over 100 µM, a TGI [49] of over 100 µM and a TGI [51] of over 26 µM. It also gave a TGI [53] of 14.6 µM, a TGI [54] of 17.7 µM and a TGI [55] of 8.12 µM.
